Laboratory results as given in ChEMBL document CHEMBL4828735, “Discovery of N-((3S,4S)-4-(3,4-Difluorophenyl)piperidin-3-yl)-2-fluoro-4-(1-methyl-1H-pyrazol-5-yl)benzamide (Hu7691), a Potent and Selective Akt Inhibitor That Enables Decrease of Cutaneous Toxicity” (J Med Chem, 2021).

Tests used:
[1] = Toxicity in mouse assessed as prone posture at 150 mg/kg; assay type: organism-based; conditions: in vivo
[2] = tested on: KHOS/NP; experiment: Antiproliferative activity against human KHOS cells assessed as inhibition of cell growth incubated for 72 hrs by SRB assay; assay type: functional, cell-based
[3] = target: hERG (KCNH2) (Homo sapiens, UniProt Q12809); experiment: Inhibition of human ERG expressed in HEK293 cells at 3 uM by whole cell patch clamp method relative to control; assay type: cell-based; conditions: HEK293 cells expressing hERG
[4] = target: RAC-gamma serine/threonine-protein kinase (Homo sapiens, UniProt Q9Y243); experiment: Inhibition of AKT3 (unknown origin)
[5] = target: Testis-specific serine/threonine-protein kinase 1 (Homo sapiens, UniProt Q9BXA7); experiment: Inhibition of TSSK1 (unknown origin)
[6] = target: Tyrosine-protein kinase ABL1 (Homo sapiens, UniProt P00519); experiment: Inhibition of ABL (unknown origin)
[7] = target: ALK tyrosine kinase receptor (Homo sapiens, UniProt Q9UM73); experiment: Inhibition of ALK (unknown origin)
[8] = target: Cyclin-dependent kinase 2 (Homo sapiens, UniProt P24941); experiment: Inhibition of CDK2 (unknown origin)
[9] = target: Aurora kinase A (Homo sapiens, UniProt O14965); experiment: Inhibition of Aurora A (unknown origin)
[10] = tested on: HaCaT; experiment: Induction of apoptosis in human HaCaT cells assessed as cleaved caspase 3 level at 2.25 to 36 uM after 24 hrs by Western blot analysis; assay type: cell-based; conditions: dose 2.25-36 µM
[11] = tested on: U-87 MG; experiment: Antiproliferative activity against human U-87MG cells assessed as inhibition of cell growth incubated for 72 hrs by SRB method; assay type: functional, cell-based, U-87MG ATCC
[12] = tested on: U-251; experiment: Antiproliferative activity against human U251 cells assessed as inhibition of cell growth incubated for 72 hrs by SRB method; assay type: functional, cell-based; conditions: U-251, 72 h
[13] = tested on: A549; experiment: Antiproliferative activity against human A549 cells assessed as inhibition of cell growth incubated for 72 hrs by SRB method; assay type: functional, cell-based; conditions: A549, 72 h
[14] = tested on: SMMC-7721; experiment: Antiproliferative activity against human SMMC-7721 cells assessed as inhibition of cell growth incubated for 72 hrs by SRB method; assay type: functional, cell-based; conditions: SMMC-7721, 72 h
[15] = tested on: HepG2; experiment: Antiproliferative activity against human HepG2 cells assessed as inhibition of cell growth incubated for 72 hrs by SRB method; assay type: functional, cell-based; conditions: HepG2, 72 h
[16] = tested on: HT-29; experiment: Antiproliferative activity against human HT-29 cells assessed as inhibition of cell growth incubated for 72 hrs by SRB method; assay type: functional, cell-based; conditions: HT-29, 72 h
[17] = tested on: 769-P; experiment: Antiproliferative activity against human 769-P cells assessed as inhibition of cell growth incubated for 72 hrs by SRB method; assay type: functional, cell-based
[18] = tested on: OS-RC-2; experiment: Antiproliferative activity against human OS-RC-2 cells assessed as inhibition of cell growth incubated for 72 hrs by SRB method; assay type: functional, cell-based; conditions: OS-RC-2, 72 h
[19] = tested on: LNCaP; experiment: Antiproliferative activity against human LNCaP cells assessed as inhibition of cell growth incubated for 72 hrs by SRB method; assay type: functional, cell-based
[20] = tested on: L02; experiment: Antiproliferative activity against human HL7702 cells assessed as inhibition of cell growth incubated for 72 hrs by SRB method; assay type: cell-based; conditions: L02, 72 h
[21] = target: Cytochrome P450 1A2 (Homo sapiens, UniProt P05177); experiment: Inhibition of CYP1A2 (unknown origin); assay type: ADME
[22] = Tmax in Sprague-Dawley rat at 2 mg/kg, iv measured upto 24 hrs by LC-MS/MS analysis; assay type: ADME, organism-based; conditions: in vivo
[23] = Cmax in Beagle dog at 20 mg/kg, ig measured upto 96 hrs by LC-MS/MS analysis; assay type: ADME, organism-based, Canis lupus familiaris; set-up: route […], dose 20 mg/kg, time <=96; conditions: in vivo, po
[24] = AUC(0 to infinity) in Sprague-Dawley rat at 15 mg/kg, ig measured upto 72 hrs by LC-MS/MS analysis; assay type: ADME, organism-based; set-up: route […], dose 15 mg/kg, time <=72; conditions: in vivo, po
[25] = AUC(0 to infinity) in Sprague-Dawley rat at 2 mg/kg, iv measured upto 24 hrs by LC-MS/MS analysis; assay type: ADME, organism-based; set-up: route intravenous, dose 2 mg/kg, time <=24; conditions: in vivo
[26] = AUC(0 to infinity) in Beagle dog at 20 mg/kg, ig measured upto 96 hrs by LC-MS/MS analysis; assay type: ADME, organism-based, Canis lupus familiaris; set-up: route […], dose 20 mg/kg, time <=96; conditions: in vivo, po
[27] = Drug metabolism in po dosed Sprague-Dawley rat urine assessed as M2 metabolite formation measured upto 72 hrs by UPLC-TOF-MS/MS analysis; assay type: ADME, organism-based; conditions: in vivo
[28] = Drug metabolism in po dosed Sprague-Dawley rat urine assessed as M3 metabolite formation measured upto 72 hrs by UPLC-TOF-MS/MS analysis; assay type: ADME, organism-based; conditions: in vivo
[29] = Drug metabolism in po dosed Sprague-Dawley rat urine assessed as M4 metabolite formation measured upto 72 hrs by UPLC-TOF-MS/MS analysis; assay type: ADME, organism-based; conditions: in vivo
[30] = Drug metabolism in po dosed Sprague-Dawley rat feces assessed as M1 metabolite formation measured upto 24 hrs by UPLC-TOF-MS/MS analysis; assay type: ADME, organism-based; conditions: in vivo
[31] = Drug metabolism in po dosed Sprague-Dawley rat feces assessed as M2 metabolite formation measured upto 24 hrs by UPLC-TOF-MS/MS analysis; assay type: ADME, organism-based; conditions: in vivo
[32] = Drug metabolism in po dosed Sprague-Dawley rat feces assessed as M5 metabolite formation measured upto 24 hrs by UPLC-TOF-MS/MS analysis; assay type: ADME, organism-based; conditions: in vivo
[33] = Drug metabolism in po dosed Sprague-Dawley rat bile assessed as M3 metabolite formation measured upto 24 hrs by UPLC-TOF-MS/MS analysis; assay type: ADME, organism-based; conditions: in vivo
[34] = Toxicity in Sprague-Dawley rat assessed as increase in body weight at 25 to 50 mg/kg administered daily for 4 weeks; assay type: organism-based; conditions: in vivo, 672 h, dose 25-50 mg/kg
[35] = Toxicity in Sprague-Dawley rat assessed as appearance of skin lesions at 25 to 75 mg/kg administered daily for 4 weeks; assay type: organism-based; conditions: in vivo, 672 h, dose 25-75 mg/kg
[36] = Toxicity in Sprague-Dawley rat assessed as effect on jejunum at 25 to 75 mg/kg administered daily for 4 weeks by histopathological analysis; assay type: organism-based; conditions: in vivo, 672 h, dose 25-75 mg/kg
[37] = Toxicity in Sprague-Dawley rat assessed as effect on bone marrow at 25 to 75 mg/kg administered daily for 4 weeks by histopathological analysis; assay type: organism-based; conditions: in vivo, 672 h, dose 25-75 mg/kg
[38] = tested on: KHOS/NP; experiment: Antitumor activity against human KHOS cells xenografted in ig dosed BALB/c nude mouse assessed as tumor growth inhibition administered once daily for 22 days; assay type: functional, organism-based; conditions: dose 12.5-50 mg/kg, time 22.0 day
[39] = tested on: 786-0; experiment: Antitumor activity against human 786-0 cells xenografted in dosed BALB/c nude mouse assessed as tumor growth inhibition at 12.5 to 50 mg/kg, ig administered once daily for 22 days; assay type: functional; conditions: dose 12.5-50 mg/kg, time 22 day
[40] = tested on: KHOS/NP; experiment: Antitumor activity against human KHOS cells xenografted in dosed BALB/c nude mouse assessed as tumor growth inhibition at 12.5 to 50 mg/kg, ig administered once daily for 22 days; assay type: functional; conditions: dose 12.5-50 mg/kg, time 22 day
[41] = Toxicity in BALB/c nude mouse xenografted with human 786-0 cells assessed as change in body weight at 12.5 to 50 mg/kg, ig administered once daily for 22 days; assay type: organism-based; conditions: in vivo, po, 528 h, dose 12.5-50 mg/kg, time 22 day
[42] = Toxicity in BALB/c nude mouse xenografted with human 786-0 cells assessed as mortality at 12.5 to 50 mg/kg, ig administered once daily for 22 days; assay type: organism-based; conditions: in vivo, po, 528 h, dose 12.5-50 mg/kg, time 22 day

Cytochrome P450 1A2, sequence (P05177 whole entry): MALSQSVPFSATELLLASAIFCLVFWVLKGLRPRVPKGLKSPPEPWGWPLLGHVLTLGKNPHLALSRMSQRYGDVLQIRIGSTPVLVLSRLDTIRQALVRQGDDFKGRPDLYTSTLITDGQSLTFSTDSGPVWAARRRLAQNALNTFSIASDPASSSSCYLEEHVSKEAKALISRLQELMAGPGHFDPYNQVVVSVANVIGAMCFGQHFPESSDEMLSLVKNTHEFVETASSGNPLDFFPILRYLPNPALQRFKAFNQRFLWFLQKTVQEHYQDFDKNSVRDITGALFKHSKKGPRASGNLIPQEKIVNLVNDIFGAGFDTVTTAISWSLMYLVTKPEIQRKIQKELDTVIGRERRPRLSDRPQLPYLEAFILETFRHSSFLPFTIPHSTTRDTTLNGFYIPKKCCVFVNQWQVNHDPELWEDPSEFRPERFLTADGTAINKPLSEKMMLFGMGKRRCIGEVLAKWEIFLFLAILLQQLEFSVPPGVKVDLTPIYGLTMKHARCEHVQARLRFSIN
Tyrosine-protein kinase ABL1, sequence (P00519 whole entry): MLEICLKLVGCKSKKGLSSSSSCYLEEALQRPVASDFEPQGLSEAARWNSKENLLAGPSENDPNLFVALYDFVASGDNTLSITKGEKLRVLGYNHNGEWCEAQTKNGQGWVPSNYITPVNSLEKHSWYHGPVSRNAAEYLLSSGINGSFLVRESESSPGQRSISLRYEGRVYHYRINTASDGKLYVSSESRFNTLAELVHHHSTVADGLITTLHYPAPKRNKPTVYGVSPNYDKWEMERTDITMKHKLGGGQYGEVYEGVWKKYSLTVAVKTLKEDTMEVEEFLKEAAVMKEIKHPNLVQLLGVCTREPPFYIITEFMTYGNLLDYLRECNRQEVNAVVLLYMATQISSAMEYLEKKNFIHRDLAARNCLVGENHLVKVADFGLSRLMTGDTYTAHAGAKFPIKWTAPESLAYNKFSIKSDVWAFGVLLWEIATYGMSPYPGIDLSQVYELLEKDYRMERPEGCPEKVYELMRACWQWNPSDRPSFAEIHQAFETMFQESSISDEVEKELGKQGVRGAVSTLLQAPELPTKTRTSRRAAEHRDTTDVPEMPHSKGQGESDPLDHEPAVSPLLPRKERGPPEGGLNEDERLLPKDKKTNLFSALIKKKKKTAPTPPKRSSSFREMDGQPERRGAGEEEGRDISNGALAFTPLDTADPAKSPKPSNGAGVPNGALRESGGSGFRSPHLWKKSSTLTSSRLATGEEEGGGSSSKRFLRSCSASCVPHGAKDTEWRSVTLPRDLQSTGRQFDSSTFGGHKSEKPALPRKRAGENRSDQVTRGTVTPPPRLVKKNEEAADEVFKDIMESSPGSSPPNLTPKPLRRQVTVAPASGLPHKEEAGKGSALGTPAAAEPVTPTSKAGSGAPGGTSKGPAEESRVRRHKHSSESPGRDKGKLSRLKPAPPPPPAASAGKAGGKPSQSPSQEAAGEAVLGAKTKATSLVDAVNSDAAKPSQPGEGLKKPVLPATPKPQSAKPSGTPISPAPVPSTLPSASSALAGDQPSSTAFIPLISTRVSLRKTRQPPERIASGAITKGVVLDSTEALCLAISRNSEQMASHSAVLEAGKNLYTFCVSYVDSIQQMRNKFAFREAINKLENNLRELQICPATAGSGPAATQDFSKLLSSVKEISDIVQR
hERG (KCNH2), sequence (Q12809 whole entry): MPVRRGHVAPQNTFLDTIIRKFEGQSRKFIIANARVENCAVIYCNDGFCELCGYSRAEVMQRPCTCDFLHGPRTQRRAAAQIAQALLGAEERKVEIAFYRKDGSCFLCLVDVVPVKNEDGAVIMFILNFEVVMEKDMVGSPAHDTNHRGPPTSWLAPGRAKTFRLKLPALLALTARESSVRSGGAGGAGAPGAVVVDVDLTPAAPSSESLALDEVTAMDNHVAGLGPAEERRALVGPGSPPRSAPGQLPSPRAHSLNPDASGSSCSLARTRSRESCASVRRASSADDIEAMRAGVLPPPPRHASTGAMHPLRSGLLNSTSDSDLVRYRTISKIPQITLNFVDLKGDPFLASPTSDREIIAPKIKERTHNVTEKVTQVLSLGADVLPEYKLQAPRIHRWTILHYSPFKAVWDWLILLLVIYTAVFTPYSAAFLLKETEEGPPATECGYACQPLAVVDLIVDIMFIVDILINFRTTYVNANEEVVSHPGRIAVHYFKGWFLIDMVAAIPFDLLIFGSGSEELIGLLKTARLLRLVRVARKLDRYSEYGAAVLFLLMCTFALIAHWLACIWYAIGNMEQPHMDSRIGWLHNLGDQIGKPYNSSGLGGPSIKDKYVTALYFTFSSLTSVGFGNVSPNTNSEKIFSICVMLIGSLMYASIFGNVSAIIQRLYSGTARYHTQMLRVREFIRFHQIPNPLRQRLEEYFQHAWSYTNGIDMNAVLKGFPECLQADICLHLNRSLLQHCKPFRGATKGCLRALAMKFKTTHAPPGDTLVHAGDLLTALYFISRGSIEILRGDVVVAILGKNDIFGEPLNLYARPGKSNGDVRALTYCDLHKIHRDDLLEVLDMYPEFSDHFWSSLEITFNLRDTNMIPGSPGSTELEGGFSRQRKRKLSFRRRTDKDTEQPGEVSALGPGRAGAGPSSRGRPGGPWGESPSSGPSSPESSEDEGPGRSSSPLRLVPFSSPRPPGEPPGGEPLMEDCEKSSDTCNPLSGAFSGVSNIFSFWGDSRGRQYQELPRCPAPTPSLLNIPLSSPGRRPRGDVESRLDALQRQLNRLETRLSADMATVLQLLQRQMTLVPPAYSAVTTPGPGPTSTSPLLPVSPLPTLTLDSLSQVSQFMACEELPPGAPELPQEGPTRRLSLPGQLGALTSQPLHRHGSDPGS
Aurora kinase A, sequence (O14965 whole entry): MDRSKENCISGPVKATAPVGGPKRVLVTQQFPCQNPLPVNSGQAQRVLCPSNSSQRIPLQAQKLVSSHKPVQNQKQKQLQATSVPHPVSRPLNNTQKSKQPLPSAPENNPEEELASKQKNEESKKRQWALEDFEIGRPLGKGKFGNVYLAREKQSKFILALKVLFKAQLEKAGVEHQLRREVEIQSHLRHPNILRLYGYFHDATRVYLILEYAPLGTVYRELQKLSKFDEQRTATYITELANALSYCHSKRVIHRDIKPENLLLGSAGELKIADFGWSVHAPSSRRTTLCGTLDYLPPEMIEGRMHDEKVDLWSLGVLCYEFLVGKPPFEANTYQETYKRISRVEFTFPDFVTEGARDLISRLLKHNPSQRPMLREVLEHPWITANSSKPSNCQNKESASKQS
ALK tyrosine kinase receptor, sequence (Q9UM73 whole entry): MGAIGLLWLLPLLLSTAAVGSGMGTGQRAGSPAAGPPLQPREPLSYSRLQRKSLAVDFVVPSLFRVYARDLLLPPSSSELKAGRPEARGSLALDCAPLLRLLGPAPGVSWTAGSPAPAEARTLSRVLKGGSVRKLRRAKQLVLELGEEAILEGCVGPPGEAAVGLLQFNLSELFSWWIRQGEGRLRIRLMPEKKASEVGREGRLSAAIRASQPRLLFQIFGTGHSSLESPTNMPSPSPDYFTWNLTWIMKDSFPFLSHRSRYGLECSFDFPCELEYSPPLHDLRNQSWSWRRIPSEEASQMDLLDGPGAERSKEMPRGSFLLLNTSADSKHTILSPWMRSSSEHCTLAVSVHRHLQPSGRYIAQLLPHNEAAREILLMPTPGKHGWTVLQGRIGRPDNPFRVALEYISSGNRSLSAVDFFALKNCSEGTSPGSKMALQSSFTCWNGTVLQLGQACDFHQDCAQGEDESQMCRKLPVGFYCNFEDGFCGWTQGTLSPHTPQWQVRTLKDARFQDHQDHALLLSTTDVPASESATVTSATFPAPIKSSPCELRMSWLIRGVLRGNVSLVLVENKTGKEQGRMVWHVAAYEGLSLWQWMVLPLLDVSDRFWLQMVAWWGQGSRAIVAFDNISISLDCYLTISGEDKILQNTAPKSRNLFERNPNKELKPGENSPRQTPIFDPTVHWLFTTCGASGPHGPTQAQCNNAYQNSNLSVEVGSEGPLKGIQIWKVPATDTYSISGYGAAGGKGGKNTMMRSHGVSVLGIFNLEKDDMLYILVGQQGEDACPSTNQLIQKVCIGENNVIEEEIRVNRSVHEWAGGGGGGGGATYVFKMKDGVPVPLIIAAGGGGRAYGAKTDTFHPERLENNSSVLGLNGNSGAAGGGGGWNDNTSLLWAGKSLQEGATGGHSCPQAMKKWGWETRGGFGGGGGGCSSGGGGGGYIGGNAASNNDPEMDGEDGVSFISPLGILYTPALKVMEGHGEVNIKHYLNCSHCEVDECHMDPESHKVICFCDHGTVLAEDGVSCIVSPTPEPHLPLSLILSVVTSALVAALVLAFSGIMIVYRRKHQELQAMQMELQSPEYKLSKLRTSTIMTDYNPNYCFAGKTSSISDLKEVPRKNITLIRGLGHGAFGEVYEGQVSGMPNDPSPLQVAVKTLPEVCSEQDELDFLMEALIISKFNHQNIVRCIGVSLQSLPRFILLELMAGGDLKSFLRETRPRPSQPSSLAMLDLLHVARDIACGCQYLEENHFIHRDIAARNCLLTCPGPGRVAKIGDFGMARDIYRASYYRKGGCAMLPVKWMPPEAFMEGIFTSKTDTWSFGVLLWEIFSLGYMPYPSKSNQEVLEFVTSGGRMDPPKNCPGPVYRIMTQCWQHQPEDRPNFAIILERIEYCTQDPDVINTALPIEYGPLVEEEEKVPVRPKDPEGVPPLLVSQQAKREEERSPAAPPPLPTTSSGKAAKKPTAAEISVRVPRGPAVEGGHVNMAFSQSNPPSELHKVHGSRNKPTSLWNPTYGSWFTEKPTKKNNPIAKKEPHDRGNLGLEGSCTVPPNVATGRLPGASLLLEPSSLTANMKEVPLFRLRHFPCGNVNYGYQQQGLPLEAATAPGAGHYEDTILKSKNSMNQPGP

Cl.Cn1nccc1-c1ccc(C(=O)N[C@@H]2CNCC[C@H]2c2ccc(F)c(F)c2)c(F)c1
Activity [1]: Toxic | IC50 [2]: 14.9 µM | inhibition at 3 µM [3]: 15.9% | IC50 [4]: 0.028 µM | IC50 [5]: > 10 µM | IC50 [6]: > 10 µM | IC50 [7]: > 10 µM | IC50 [8]: > 10 µM | IC50 [9]: > 10 µM | Activity [10]: Non-Toxic | IC50 [11]: 9.26 µM | IC50 [12]: 6.53 µM | IC50 [13]: 6.56 µM | IC50 [14]: 19.8 µM | IC50 [15]: 3.6 µM | IC50 [16]: 20.3 µM | IC50 [17]: 7.76 µM | IC50 [18]: 9.9 µM | IC50 [19]: 0.61 µM | IC50 [20]: 5.4 µM | IC50 [21]: > 100 µM | Tmax [22]: 6.6 min | Cmax [23]: 906 ng/mL | AUC(0-inf) [24]: 2820 ng·h/mL | AUC(0-inf) [25]: 533 ng·h/mL | AUC(0-inf) [26]: 36300 ng·h/mL | Drug metabolism [27]: Metabolite_Detected | Drug metabolism [28]: Metabolite_Detected | Drug metabolism [29]: Metabolite_Detected | Drug metabolism [30]: Metabolite_Detected | Drug metabolism [31]: Metabolite_Detected | Drug metabolism [32]: Metabolite_Detected | Drug metabolism [33]: Metabolite_Detected | Activity [34]: Toxic | Activity [35]: Non-Toxic | Activity [36]: Non-Toxic | Activity [37]: Non-Toxic | Activity [38]: Dose-Dependent Effect | TGI [39]: 70% | TGI [40]: 55.7% | Activity [41]: Non-Toxic | Activity [42]: Non-Toxic
